The text below walks through data of Sander's compilation of Henry's law constants.

A short description of this data set: Henry solubility constant Hcp at 298.15 K (mol/(m3 Pa)).
Setting [1] is: reference: Kawamoto and Urano (1989).
Setting [2] is: reference: Jayasinghe et al. (1992).
Setting [3] is: reference: Hawthorne et al. (1985).
The mark [4] stands for this setting: reference: Butler et al. (1935).
[5] abbreviates: reference: Snider and Dawson (1985).
Setting [6] is: reference: Charles and Destaillats (2005).
Where [7] appears, read: reference: Wieland et al. (2015).
Where [8] appears, read: reference: Buttery et al. (1971).
Where [9] appears, read: reference: Hovorka et al. (2019).
The mark [10] stands for this setting: reference: Straver and de Loos (2005).
Setting [11] is: reference: Fenclová et al. (2010).
The mark [12] stands for this setting: reference: Amoore and Buttery (1978).

`N#Cc1c(Cl)c(Cl)c(Cl)c(C#N)c1Cl` [2,4,5,6-tetrachloro-1,3-dicyanobenzene]: the “Henry solubility constant Hcp” value under setting [1] turned out to be 50. Take `Cc1cc(C)c(N)cc1C` [2,4,5-trimethylbenzenamine]: the “Henry solubility constant Hcp” value under setting [2] worked out at 3.9. Consider `O=[N+]([O-])c1ccc(Oc2c(Cl)cc(Cl)cc2Cl)cc1` [2,4,6-trichlorophenyl 4-nitrophenyl ether], for which the “Henry solubility constant Hcp” value under setting [1] was greater than 8.1. On to `Cc1ccc(Cl)cc1Cl` [2,4-dichloro-1-methylbenzene], for which, where the note is “reference: Brockbank et al. (2013)”, the “Henry solubility constant Hcp” value worked out at 0.0027. For `Cc1ccnc(C)c1` [2,4-dimethylpyridine], the “Henry solubility constant Hcp” value under setting [3] is 0.99. Turning to `CC(C)CCC(C)C` [2,5-dimethylhexane], the “Henry solubility constant Hcp” value (reference: Dohányosová et al. (2004)) was 2.4e-06.

For `Cc1cnc(C)cn1` [2,5-dimethylpyrazine], the “Henry solubility constant Hcp” value runs as follows: (reference: Druaux et al. (1998)) 5.5; (reference: Marin et al. (1999)) 7.1. Turning to `N#Cc1c(Cl)cccc1Cl` [2,6-dichlorobenzenenitrile], the “Henry solubility constant Hcp” value (reference: Schoene and Steinhanses (1985)) was found to be 0.48. With `Cc1cncc(C)n1` [2,6-dimethylpyrazine], the “Henry solubility constant Hcp” value (reference: Chaintreau et al. (1995)) was determined as 0.98.

With `Cc1cccc(C)n1` [2,6-dimethylpyridine], the “Henry solubility constant Hcp” value under setting [3] came to 0.66. For `CC1(C)C2CC3OC3(C)C1C2` (configuration not stated) [2,7,7-trimethyl-3-oxatricyclo[4.1.1.0(2,4)]octane], the “Henry solubility constant Hcp” value (reference: Fichan et al. (1999)) is 0.023. On to `Clc1ccc2c(c1)Oc1ccc(Cl)cc1O2` [2,7-dichlorodibenzo-p-dioxin], for which the “Henry solubility constant Hcp” value (reference: Santl et al. (1994)) amounted to 0.17. For `CC(N)CO` (configuration not stated) [2-amino-1-propanol], the “Henry solubility constant Hcp” value (reference: Nguyen (2013)) stood at 1300. Take `CC(C)(N)CO` [2-amino-2-methyl-1-propanol]: the “Henry solubility constant Hcp” value (reference: Nguyen (2013)) is 700.

As to `CCC(C)N` (configuration not stated) [2-butanamine], the “Henry solubility constant Hcp” value (reference: Kish et al. (2013)) is 0.4.

Consider `CCC(C)O` (configuration not stated) [2-butanol], for which the “Henry solubility constant Hcp” value was 0.96 under setting [4] and 1.1 under setting [5]. For `CCCCOCCOC(C)=O` [2-butoxyethyl ethanoate], under “reference: Kim et al. (2000)”, the “Henry solubility constant Hcp” value amounted to 1.8. Turning to `CCC(C)O[N+](=O)[O-]` (configuration not stated) [2-butyl nitrate], the “Henry solubility constant Hcp” value amounted to 0.0044 (reference: Hauff et al. (1998)) and 0.0063 (reference: Luke et al. (1989)).

Turning to `FC(F)(F)CCl` [2-chloro-1,1,1-trifluoroethane], the “Henry solubility constant Hcp” value came out at 0.00037 (reference: Maaßen (1995)) and 0.00041 (reference: Reichl (1995)). For the molecule `FC(F)=CCl` [2-chloro-1,1-difluoroethene], the “Henry solubility constant Hcp” value is 0.00017 (reference: Maaßen (1995)) and 0.00017 (reference: Reichl (1995)). Turning to `CC(C)(C)Cl` [2-chloro-2-methylpropane], the “Henry solubility constant Hcp” value (reference: Clarke et al. (1962)) was 0.00016. With `Clc1ccccc1-c1ccccc1` [2-chlorobiphenyl], the “Henry solubility constant Hcp” value under setting [6] was determined as 0.03. In the case of `CCOC(C)(C)CC(C)(C)C` [2-ethoxy-2,4,4-trimethylpentane], the “Henry solubility constant Hcp” value (reference: Haimi et al. (2006)) worked out at 0.00077. Take `CCOC(C)(C)CC` [2-ethoxy-2-methylbutane]: where the note is “reference: Haimi et al. (2006)”, the “Henry solubility constant Hcp” value came out at 0.0048. For `CCCCC(CC)CO` (configuration not stated) [2-ethyl-1-hexanol], the “Henry solubility constant Hcp” value (reference: Wu et al. (2022a)) stood at 0.15.

Regarding `CCc1ncc(C)nc1C` [2-ethyl-3,5-dimethylpyrazine], under setting [7], the “Henry solubility constant Hcp” value was 2.9. As to `CCc1nccnc1OC` [2-ethyl-3-methoxypyrazine], the “Henry solubility constant Hcp” value under setting [8] worked out at 0.67. On the same count and under the same terms, with `CCc1cnccn1` [2-ethylpyrazine] the figure was 4. Take `CCCCCC(C)=O` [2-heptanone]: the “Henry solubility constant Hcp” value reads like this: (reference: Chai et al. (2005)) 0.068; (reference: Kim et al. (2000)) 0.062. `CCCCC(C)=O` [2-hexanone]: the “Henry solubility constant Hcp” value (reference: Chai et al. (2005)) was determined as 0.086, the “Henry solubility constant Hcp” value under setting [9] is 0.099 and the “Henry solubility constant Hcp” value under setting [10] came to 0.11. Turning to `COC(=O)c1ccccc1O` [2-hydroxybenzoic acid methyl ester], the “Henry solubility constant Hcp” value (reference: Karl et al. (2008)) turned out to be 0.33. As to `COc1nccnc1CC(C)C` [2-isobutyl-3-methoxypyrazine], the “Henry solubility constant Hcp” value under setting [8] is 0.2.

With `CC(C)Cc1cnccn1` [2-isobutylpyrazine], under setting [8], the “Henry solubility constant Hcp” value came out at 2. As to `CCCCCC(C)(C)OC` [2-methoxy-2-methylheptane], where the note is “reference: Haimi et al. (2006)”, the “Henry solubility constant Hcp” value was determined as 0.0019. As for `C=CCc1ccc(O)c(OC)c1` [2-methoxy-4-(2-propenyl)-phenol], for the setting “reference: McFall et al. (2020)”, the “Henry solubility constant Hcp” value was 9.2. For `C=CC(=C)C` [2-methyl-1,3-butadiene], the “Henry solubility constant Hcp” value by setting is: (reference: Leng et al. (2013)) 0.00034; (reference: Schuhfried et al. (2015)) 0.0003. Regarding `CCC(C)CO` (configuration not stated) [2-methyl-1-butanol], the “Henry solubility constant Hcp” value amounted to 0.7 under setting [4] and 0.78 under setting [11]. Consider `CC(C)CS` [2-methyl-1-propanethiol], for which the “Henry solubility constant Hcp” value (reference: Zin et al. (2016)) is 0.001.

As for `CC(C)CO` [2-methyl-1-propanol], the “Henry solubility constant Hcp” value under setting [4] was 0.83 and the “Henry solubility constant Hcp” value under setting [5] is 1. With `CCC(C)(C)O` [2-methyl-2-butanol], the “Henry solubility constant Hcp” value is 0.71 under setting [4] and 0.72 under setting [11]. In the case of `C=C(C)C(=O)O` [2-methyl-2-propenoic acid], the “Henry solubility constant Hcp” value (reference: Khan et al. (1992)) was determined as 25. For `CCC(=O)C(C)C` [2-methyl-3-pentanone], under setting [9], the “Henry solubility constant Hcp” value is 0.052. For `C=C(C)[C@@H]1CC=C(C)C(=O)C1` [2-methyl-5-(1-methylethenyl)-2-cyclohexen-1-one], under setting [12], the “Henry solubility constant Hcp” value was 0.49.

Regarding `CCC(C)C=O` (configuration not stated) [2-methylbutanal], the “Henry solubility constant Hcp” value (reference: Pollien et al. (2003)) is 0.023. For `Cc1ccco1` [2-methylfuran], the “Henry solubility constant Hcp” value under setting [7] was determined as 0.0015. In the case of `CC1(C)[C@@H]2CC[C@@]1(C)[C@](C)(O)C2` [2-methylisoborneol], the “Henry solubility constant Hcp” value (reference: Ömür-Özbek and Dietrich (2005)) was found to be 0.089. As to `CC1CNCCN1` (configuration not stated) [2-methylpiperazine], the “Henry solubility constant Hcp” value (reference: Nguyen (2013)) was determined as 5000. As to `CC(C)C` [2-methylpropane], the “Henry solubility constant Hcp” value (reference: McAuliffe (1963)) was 8.5e-06, the “Henry solubility constant Hcp” value (reference: Mohebbi et al. (2012)) came to 0.00011 and the “Henry solubility constant Hcp” value (reference: Wetlaufer et al. (1964)) stood at 9.9e-06. Turning to `CC(C)COC(=O)C(C)C` [2-methylpropyl 2-methylpropanoate], the “Henry solubility constant Hcp” value under setting [12] was determined as 0.01. As for `Cc1cnccn1` [2-methylpyrazine], under setting [8], the “Henry solubility constant Hcp” value worked out at 4.5.

On to `O=[N+]([O-])c1ccccc1O` [2-nitrophenol], for which the “Henry solubility constant Hcp” value is 1.4 (reference: Guo and Brimblecombe (2007)); 0.83 (reference: Harrison et al. (2002)); 0.89 (reference: Müller and Heal (2001)).

`CC(=O)C(=O)O` [2-oxopropanoic acid]: the “Henry solubility constant Hcp” value by setting is: (reference: Khan and Brimblecombe (1992)) 3100; (reference: Khan et al. (1992)) 3100; (reference: Khan et al. (1995)) 3100. Turning to `CCCC(C)O` (configuration not stated) [2-pentanol], the “Henry solubility constant Hcp” value by setting is: under setting [4], 0.67; under setting [11], 0.71. In the case of `CCCC(C)O[N+](=O)[O-]` (configuration not stated) [2-pentyl nitrate], under “reference: Hauff et al. (1998)”, the “Henry solubility constant Hcp” value is 0.0037. Consider `CC(C)S` [2-propanethiol], for which the “Henry solubility constant Hcp” value (reference: Haimi et al. (2006)) amounted to 0.0013 and the “Henry solubility constant Hcp” value (reference: Zin et al. (2016)) worked out at 0.0016. Regarding `Clc1ccc(-c2ccc(Cl)c(Cl)c2)cc1Cl` [3,3',4,4'-tetrachlorobiphenyl], under setting [6], the “Henry solubility constant Hcp” value came to 0.029.

Consider `C=CCSCC=C` [3,3'-thiobis-1-propene], for which the “Henry solubility constant Hcp” value (reference: Lindinger et al. (1998)) was determined as 0.0041. Take `FC(F)(F)C(F)(F)C(Cl)Cl` [3,3-dichloro-1,1,1,2,2-pentafluoropropane]: for the setting “reference: Kutsuna (2013)”, the “Henry solubility constant Hcp” value was 9.8e-05.

`CC(=O)C(C)(C)C` [3,3-dimethyl-2-butanone]: the “Henry solubility constant Hcp” value under setting [9] is 0.043. Take `Cc1ccc(N)cc1C` [3,4-dimethylbenzenamine]: the “Henry solubility constant Hcp” value under setting [2] turned out to be 5.3. For `CCCCOCCOCCO` [3,6-dioxa-1-decanol], the “Henry solubility constant Hcp” value (reference: Kim et al. (2000)) stood at 1400. For `C=CC(C)(O)CCC=C(C)C` (configuration not stated) [3,7-dimethyl-1,6-octadien-3-ol], the “Henry solubility constant Hcp” value reads like this: (reference: Copolovici and Niinemets (2007)) 0.38; (reference: Leng et al. (2013)) 0.2. Consider `C#CCBr` [3-bromo-1-propyne], for which the “Henry solubility constant Hcp” value (reference: Yates and Gan (1998)) turned out to be 0.0088. In the case of `C#CC=C` [3-buten-1-yne], for the setting “reference: Simpson and Lovell (1962)”, the “Henry solubility constant Hcp” value was found to be 0.00038. For `C=CC(C)=O` [3-buten-2-one], the “Henry solubility constant Hcp” value worked out at 0.21 (reference: Allen et al. (1998)); 0.4 (reference: Iraci et al. (1999)); 0.26 (reference: Ji and Evans (2007)). `CCCC(=O)CC` [3-hexanone]: the “Henry solubility constant Hcp” value under setting [9] worked out at 0.076. In the case of `CC(=O)C(C)O` (configuration not stated) [3-hydroxy-2-butanone], the “Henry solubility constant Hcp” value is, setting by setting: under setting [10], 0.57; (reference: Wu et al. (2022b)) 3.1. In the case of `CC(C)CCO[N+](=O)[O-]` [3-methyl-1-butanol nitrate], the “Henry solubility constant Hcp” value (reference: Hauff et al. (1998)) worked out at 0.005.
